According to publication PMC9861858, “Stereoselective Synthesis and Antiproliferative Activities of Tetrafunctional Diterpene Steviol Derivatives” (International Journal of Molecular Sciences, 2023):
Values after ≈ are worked out from the molar mass of the structure shown. “Also recorded” adds a separate entry of the source.

Key:
[1] = tested on: human cancer cell lines (HeLa, SiHa, A2780, MCF-7 and MDA-MB-231); assay: MTT antiproliferative assay, whole cancer cell panel; format: cell-based; conditions: 10 and 30 μM
Experimental: (§1) The in vitro antiproliferative activities of the synthesised aminotriols 5–18 against a panel of different human cancer cell lines of gynecological origin, including cervical (SiHA and HeLa), breast (MCF7 and MDA-MB-231), ovary (A2780) cancers and NIH/3T3 healthy fibroblasts, were assayed by the MTT method. Cisplatin, a clinically applied anticancer agent was used as a reference compound, and the results are summarised in Figure 3 and Table S1 in the Supplementary Materials.
(§2) The growth-inhibitory effects of the presented terpenes were determined by a standard MTT [3-(4,5-dimethylthiazol2-yl)-2,5-diphenyltetrazolium bromide] assay against […] human cancer cell lines (cervical cancer HeLa and SiHa cell lines, breast cancer MCF-7 and MDA-MB-231 and ovarian cancer A2780). Murine embryonal fibroblast cells (NIH/3T3) were used to determine selectivity. All cell lines were purchased from the European Collection of Cell Cultures (Salisbury, UK). The cells were cultivated in Eagle’s minimal essential medium supplemented with 10% fetal bovine serum, 1% non-essential amino acids, and 1% Antibiotic-Antimycotic complex (penicillin, streptomycin, amphotericin B) at 37 °C in a humidified atmosphere containing 5% CO2. All media and supplements were purchased from Lonza Group Ltd. (Basel, Switzerland). Cancer cells were seeded into 96-well plates (5000 cells/well) after an overnight incubation, and the test compounds were added at two different concentrations (10 μM and 30 μM) and incubated for another 72 h under cell-culturing conditions. Finally, 20 μL of a 5 mg/mL MTT solution was added to each well, and the contents were incubated for a further 4 h. The medium was removed, and the precipitated formazan crystals were dissolved in DMSO by shaking at 37 °C for 60 min. The absorbance was measured at 545 nm by using a microplate reader (SPECTROStar Nano, BMG Labtech, Offenburg, Germany). Clinically utilised anticancer agent cisplatin (Ebewe GmbH, Unterach, Austria) was included as a reference molecule. Calculations were performed using the GraphPad Prism 9 software (GraphPad Software Inc., San Diego, CA, USA).

[2] = Kinetic aqueous solubility; format: physicochemical; conditions: phosphate buffered saline with 5% DMSO, aqueous with cosolvent or surfactant or cyclodextrin, kinetic from dmso stock; after 2 h, at 37 °C in PBS, pH 7.4, 5% DMSO; target concentration 500 μM; mean ± S.E.M, n = 3
Experimental: (§3) Filtrates and calibration solutions (5–500 μ M) of the kinetic solubility study and starting donor and acceptor solutions of the PAMPA-GI study were investigated by HPLC-DAD-MS. LC-MS analysis was performed using a Waters 2795 HPLC with a Waters 2487 DAD detector coupled with a Micromass Quattro Ultima TMPt quadrupol mass spectrometer equipped with an ESI source. Measurements were performed on a Waters XSelect C18 (150 × 4.6 mm; 3.5 μm) column with a […] eluent flow rate and the temperature set at 40 °C. The composition of eluent A was MilliQ water with 0.1% formic acid, and that of eluent B was an acetonitrile and MilliQ water mixture (95:5, v/v), also with 0.1% formic acid. The following linear gradient program was used: 0–6 min, 10–100% B; this was held for 3 min, then from 9.01 min on, back to the starting composition of 10% B–90% A. The injection volume was 10 μL for each sample. Chromatographic profiles were registered at dual wavelength, 220 and 240 nm. The mass spectrometer was used in negative ion mode for samples 2, 3 and 4b, and in positive ion mode for other samples. The operating parameters of the MS were: Mass range of m/z 150–700. Nitrogen gas flow rate was 350 L/h, temperature of 350 °C and pressure of 6 bar. The quadrupol temperature was 120 °C, and the capillary voltage was 2.5 kV. Fragmentor’s voltage of 60 V.
(§4) Intestinal (GI) permeability was determined by using an intestinal-specific parallel artificial membrane permeability assay (PAMPA-GI [36]]). […] All solutions were filtered by MultiScreen HTS Vacuum Manifold (Merck Ltd., Budapest, Hungary) after the incubation period. The target concentration was 500 μM for every sample investigated. The intestinal-specific effective permeability of the samples was determined by PAMPA-GI. To prepare starting solutions for a 96-well donor plate, 15 μLs of the 10 mM DMSO stock solution of investigation compounds and 285 μL pH 6.5 phosphate buffer solution were mixed. These solutions were left in a shaking incubator (300 rpm) at 25 °C for 1 h. Meanwhile, a 96-well acceptor plate was filled with 300 μL of pH 7.4 PBS buffer solution containing 5% DMSO. The intestinal-specific artificial membrane was prepared the following way: the hydrophobic filter material of the donor plate was coated with a mixture of phosphatidylcholine/cholesterol = 2:1 (5 μL, 4 % (w/v) in dodecane). After that, all donor wells were filled with 150 μL of the starting donor solutions, and they were carefully placed on the acceptor plate and incubated at 37 °C for 4 h. After the end of the incubation period the donor and acceptor plates were separated carefully. A total of 150 μL of the donor, acceptor and the starting donor solutions were sampled and analysed with HPLC-DAD-MS. The effective permeability and membrane retention of drugs were calculated using the following equations: Pe=−2.303/A·(t−τss)·1/1+rv·lg[−rv+(1+rv/1−MR)·]CD(t)/CD(0) MR=1−CD(t)/CD(0)−VA·CA(t)/VD·CD(0) where Pe is the effective permeability coefficient (cm/s), A is the filter area (0.3 cm^2), VD and VA are the volumes in the donor (0.15 cm^3) and acceptor phase (0.3 cm^3), t is the incubation time (s), τSS is the time to reach steady-state (s), CD(t) is the concentration of the compound in the donor phase at time point t (mol/cm^3), CD(0) is the concentration of the compound in the donor phase at time point zero (mol/cm^3), rv is the aqueous compartment volume ratio (VD/VA), MR is the membrane retention factor.

[3] = Intestinal-specific parallel artificial membrane permeability assay (PAMPA-GI); format: in vitro ADME; conditions: gradient pH system (pH donor 6.5 → pH acceptor 7.4) after 4 h, at 37 °C, mean ± S.E.M, n = 3
Experimental: as §3, §4

[4] = tested on: HeLa cells; assay: MTT antiproliferative assay, HeLa; format: cell-based, human; conditions: Homo sapiens, HeLa, 72 h, values <20% considered negligible, read-out: Growth inhibition (%) ± SEM, HeLa
Experimental: as §1, §2

[5] = tested on: SiHa cells; assay: MTT antiproliferative assay, SiHa; format: cell-based, human; conditions: for inhibition at 10 µM / inhibition at 30 µM: Homo sapiens, SiHa, 72 h, values <20% considered negligible, read-out: Growth inhibition (%) ± SEM, SiHa
Experimental: as §1, §2

[6] = tested on: MCF-7 cells; assay: MTT antiproliferative assay, MCF-7; format: cell-based, human; conditions: for inhibition at 10 µM / inhibition at 30 µM: Homo sapiens, 72 h, values <20% considered negligible, read-out: Growth inhibition (%) ± SEM, MCF-7; for inhibition at 10 µM: MCF7, 10 μM; for inhibition at 30 µM: MCF7, 30 μM
Experimental: as §1, §2

[7] = tested on: MDA-MB-231 cells; assay: MTT antiproliferative assay, MDA-MB-231; format: cell-based, human; conditions: for inhibition at 10 µM / inhibition at 30 µM: Homo sapiens, 72 h, values <20% considered negligible, read-out: Growth inhibition (%) ± SEM, MDA-MB-231; for inhibition at 10 µM: MDA-MB-231, 10 μM; for inhibition at 30 µM: MDA-MB-231, 30 μM
Experimental: as §1, §2

[8] = tested on: A2780 cells; assay: MTT antiproliferative assay, A2780; format: cell-based, human; conditions: for inhibition at 10 µM / inhibition at 30 µM: Homo sapiens, 72 h, values <20% considered negligible, read-out: Growth inhibition (%) ± SEM, A2780; for inhibition at 10 µM: A2780, 10 μM; for inhibition at 30 µM: A2780, 30 μM
Experimental: as §1, §2

[9] = tested on: NIH/3T3 fibroblasts; assay: MTT assay on fibroblasts (selectivity); format: cell-based, murine; conditions: Mus musculus, 72 h, values <20% considered negligible, read-out: Growth inhibition (%) ± SEM, NIH/3T3; for inhibition at 10 µM: NIH3T3, 10 μM; for inhibition at 30 µM: NIH3T3, 30 μM
Experimental: as §1, §2

Row | SMILES | solubility kinetic at 2 h [2] [µM] | PAMPA-GI MR (membrane retention) [3] [%] | melting point [°C] | inhibition at 10 µM [4] [%] | inhibition at 30 µM [4] [%] | inhibition at 10 µM [5] [%] | inhibition at 30 µM [5] [%] | inhibition at 10 µM [6] [%] | inhibition at 30 µM [6] [%] | inhibition at 10 µM [7] [%] | inhibition at 30 µM [7] [%] | inhibition at 10 µM [8] [%] | inhibition at 30 µM [8] [%] | inhibition at 10 µM [9] [%] | inhibition at 30 µM [9] [%] | further results
1 | C=C1[C@H](O)[C@@]23CC[C@H]4[C@@](C)(CCC[C@@]4(C)C(=O)O)[C@@H]2CC[C@]1(O)C3 [Compound 2] | 443 ± 35.7 (≈ 148 µg/mL) | 6.5 ± 0.7 | – | – | – | – | – | – | – | – | – | – | – | – | – | Antiproliferative activity on the cancer cell panel, in words [1]: any notable effect was not detectable; Papp at 4 h, 500 µM ([3]; PAMPA, read-out: PAMPA-GI Pe): 0.52 ± 0.02 ×10⁻⁶ cm/s
2 | COC(=O)[C@]1(C)CCC[C@@]2(C)C3CC[C@]4(O)C[C@@]3(CCC21)[C@@H](O)[C@]41CN(Cc2ccccc2)CO1 (stereo partly drawn) [Compound 18, (4R,5’R,6aR,7R,9S,11bS)-Methyl 3’-Benzyl-7,9-dihydroxy-4,11b-dimethyldodecahydro-1H-spiro [6a,9-methanocyclohepta[a]naphthalene-8,5’-oxazolidine]-4-carboxylate] | 321 ± 88.5 (≈ 155 µg/mL) | 2.7 ± 0.4 | 123 to 125 | < 20 | 41.1 ± 1.95 | < 20 | 66.1 ± 2.45 | < 20 | 95.18 ± 0.35 | < 20 | 87.7 ± 0.91 | < 20 | 58.5 ± 3.18 | < 20 | < 20 | Antiproliferative effect on SiHa, in words ([5]; 10 and 30 μM): moderate activity; Antiproliferative effect / selectivity on MCF-7, in words ([6]; 10 and 30 μM): Selectivity for MCF-7 cells increased slightly; Antiproliferative effect / selectivity on MDA-MB-231, in words ([7]; 10 and 30 μM): moderate activity; also recorded: smaller but also selective antiproliferative effect; Antiproliferative effect on A2780, in words ([8]; 10 and 30 μM): moderate activity

More lines, main results first:

Row | solubility kinetic at 2 h [2] [µM] | PAMPA-GI MR (membrane retention) [3] [%] | melting point [°C] | SMILES | inhibition at 10 µM [4] [%] | inhibition at 30 µM [4] [%] | inhibition at 10 µM [5] [%] | inhibition at 30 µM [5] [%] | inhibition at 10 µM [6] [%] | inhibition at 30 µM [6] [%] | inhibition at 10 µM [7] [%] | inhibition at 30 µM [7] [%] | inhibition at 10 µM [8] [%] | inhibition at 30 µM [8] [%] | inhibition at 10 µM [9] [%] | inhibition at 30 µM [9] [%] | further results
3 | 13.3 ± 0.9 (≈ 7.13 µg/mL) | 92.6 ± 2.1 | 93 to 95 | COC(=O)[C@]1(C)CCC[C@@]2(C)C3CC[C@]4(O)C[C@@]3(CCC21)[C@@H](O)[C@]4(O)CN[C@H](C)c1ccc2ccccc2c1 (stereo partly drawn) [Compound 12, (4R,6aR,7R,8R,9S,11bS)-Methyl 7,8,9-Trihydroxy-4,11b-dimethyl-8-((((R)-1-(naphthalen-2-yl)ethyl)amino)methyl)tetradecahydro-6a,9-methanocyclohepta[a]naphthalene-4-carboxylate] | 96.82 ± 0.56 | 96.94 ± 0.49 | 96.08 ± 0.6 | 95.49 ± 0.86 | 96.35 ± 0.36 | 95.87 ± 0.38 | 95.84 ± 0.29 | 95.62 ± 0.34 | 96.68 ± 0.36 | 96.38 ± 0.3 | 90.07 ± 0.51 | 94.67 ± 0.24 | –
4 | 11.9 ± 1.8 (≈ 6.38 µg/mL) | 92.6 ± 1.1 | 81 to 83 | COC(=O)[C@]1(C)CCC[C@@]2(C)C3CC[C@]4(O)C[C@@]3(CCC21)[C@@H](O)[C@]4(O)CN[C@@H](C)c1ccc2ccccc2c1 (stereo partly drawn) [Compound 13, (4R,6aR,7R,8R,9S,11bS)-Methyl 7,8,9-Trihydroxy-4,11b-dimethyl-8-((((S)-1-(naphthalen-2-yl)ethyl)amino)methyl)tetradecahydro-6a,9-methanocyclohepta[a]naphthalene-4-carboxylate] | 94.5 ± 1.24 | 94.9 ± 1.29 | 93.8 ± 1.81 | 93.77 ± 0.41 | 95.74 ± 0.64 | 95.44 ± 0.85 | 93.33 ± 0.29 | 93.21 ± 0.46 | 96.64 ± 0.35 | 96.79 ± 0.2 | 72 ± 1.81 | 90.5 ± 1.31 | –
5 | 18.9 ± 2.4 (≈ 9.86 µg/mL) | 94.2 ± 2.0 | 138 to 140 | COC(=O)[C@]1(C)CCC[C@@]2(C)C3CC[C@]4(O)C[C@@]3(CCC21)[C@@H](O)[C@]4(O)CNCc1cccc2ccccc12 (stereo partly drawn) [Compound 14, (4R,6aR,7R,8R,9S,11bS)-Methyl 7,8,9-Trihydroxy-4,11b-dimethyl-8-(((naphthalen-1-ylmethyl)amino)methyl)tetradecahydro-6a,9-methanocyclohepta[a]naphthalene-4-carboxylate] | 97.2 ± 0.92 | 98.14 ± 0.36 | 97.24 ± 0.39 | 96.7 ± 0.65 | 97.57 ± 0.19 | 97.66 ± 0.28 | 97.41 ± 0.21 | 96.46 ± 0.34 | 92.2 ± 3.33 | 96.81 ± 0.23 | 93.25 ± 0.51 | 97.34 ± 0.26 | –
